# Paper PMC3720801, “A Proline-Hinge Alters the Characteristics of the Amphipathic α-helical AMPs” (PLoS ONE, 2013)
# Peptide text beside a SMILES is read from it.
# Experiments:
# [1] = system: Proteus vulgaris (KCTC 2433); conditions: broth microdilution, 1% bactopeptone, 5×10^3 CFU/ml, 10 h at 37°C, OD 620 nm, triplicate
# [2] = system: Salmonella typhimurium (KCTC 1926); conditions: broth microdilution, 1% bactopeptone, 5×10^3 CFU/ml, 10 h at 37°C, OD 620 nm, triplicate
# [3] = system: Pseudomonas aeruginosa (KCTC 1637); conditions: broth microdilution, 1% bactopeptone, 5×10^3 CFU/ml, 10 h at 37°C, OD 620 nm, triplicate
# [4] = system: S. aureus (KCTC 1621); conditions: broth microdilution, 1% bactopeptone, 5×10^3 CFU/ml, 10 h at 37°C, OD 620 nm, triplicate
# [5] = system: Trichosporon beigelii (KCTC 7707); assay: Antifungal MTT assay MIC; format: cell-based; conditions: YPD pH 5.5, 24 h at 28°C, absorbance 570 nm, triplicate
# [6] = system: Bacillus subtilis (KCTC 1918); conditions: broth microdilution, 1% bactopeptone, 5×10^3 CFU/ml, 10 h at 37°C, OD 620 nm, triplicate
# [7] = system: Candida albicans (KCTC 7270); conditions: MTT assay, YPD pH 5.5, 24 h at 28°C, absorbance 570 nm, triplicate
# [8] = system: Staphylococcus epidermidis (KCTC 1917); conditions: broth microdilution, 1% bactopeptone, 5×10^3 CFU/ml, 10 h at 37°C, OD 620 nm, triplicate
# [9] = system: Escherichia coli (KCTC 1682); conditions: broth microdilution, 1% bactopeptone, 5×10^3 CFU/ml, 10 h at 37°C, OD 620 nm, triplicate
# [10] = system: Saccharomyces cerevisiae (KCTC 7296); conditions: MTT assay, YPD pH 5.5, 24 h at 28°C, absorbance 570 nm, triplicate
# [11] = FITC-dextran leakage from liposomes; conditions: 10 µM peptide, peptide/lipid 1/10, 25°C, FITC fluorescence
# Protocol: FITC-labeled dextrans (FD-4, 10, 20, 40, 70 and 500) were utilized as model cytoplasmic components. FD (fluorescein isothiocyanate dextrans), with average molecular masses of 4, 10, 20, 40, 70, and 500 kDa were all purchased from the Sigma Chemical Co. (St. Louis, MO). FD-entrapping liposomes (unilamellar vesicles) with different lipid compositions were prepared using the reverse-phase evaporation method, after which the concentrations of the FD-entrapping vesicles were determined in triplicate using a phosphorus assay. To prepare FD-entrapping liposomes, a buffer solution (buffer II: PBS) containing 2 mg/ml of the FD was sonicated for 30 min with a lipid solution in chloroform (20 mg/ml) on ice. The chloroform was then gradually removed using a rotary vacuum evaporator at 25°C, resulting first in the formation of a viscous gel and then a liposome suspension. Buffer (2 ml) was added, and the suspension was evaporated further to remove the remaining solvent. The liposome suspensions were then centrifuged and washed for several cycles at 22,000×gav for 30 min in order to remove unentrapped-FD. The washed liposomes were extruded 30 times through polycarbonate filters (two stacked 0.4-µm pore size filters) using an Avanti Mini-Extruder (Avanti Polar Lipids inc., Alabaster, AL) to obtain liposomes of homogeneous size (∼400 nm). Aliquots of the peptide solutions at appropriate concentrations were incubated with a suspension of FD-loaded liposomes (100 µM) for 1–20 min at 25°C, and were then centrifuged for 30 min at 22,000×g. The supernatants were recovered and the leakage was recorded by monitoring the FITC fluorescence intensity (excitation wavelength: 494 nm, emission wavelength: 520 nm). 100% leakage was achieved by addition of Triton X-100 to a final concentration of 1 mM. The percent leakage value was then plotted.
# [12] = system: plasmid DNA (pBluescript SK(+)); assay: DNA gel retardation; format: binding; conditions: plasmid DNA 100 ng, 10 min at 37°C, agarose gel
# [13] = In vitro binding assay to insoluble polysaccharide; conditions: 100 µg polysaccharide + 5 µg peptide, room temperature 1 h, SDS-PAGE
# Protocol: Chitin (β-1,4-N-acetyl-D-glucosamine), chitosan (β-1,4-D-glucosamine), cellulose (β-1,4-glucan), curdlan (β-1,3-glucan) and peptidoglycan (β-1,4-glycosidic linkage between N-acetyl muramic and N-acetylglucosamine) were used for the in vitro binding assay of Anal 3-Pro. One hundred µg of each insoluble polysaccharide was added in 5 µg of purified Anal 3-Pro and incubated at room temperature with mild agitation for 1 h. The mixture was centrifuged (10,000×g for 2 min) and the pellet was washed three times with 1 ml of washing buffer (10 mM Tris, pH 7.5, 500 mM NaCl, 0.02% Tween 20). The peptide bound to insoluble polysaccaharide was detached by adding SDS-polyacrylamide gel electrophoresis sample buffer.
# [14] = system: T. begellii; assay: Confocal laser-scanning microscopy, localization of FITC-conjugated peptides; format: cell-based; conditions: 15 min at 28°C
# [15] = system: C. albicans cells; assay: Flow cytometric analysis of cell membrane permeability (PI uptake); format: cell-based, Candida albicans; conditions: 30 min on ice, 12.5 µM Anal 3 or melittin, peptides at MIC
# Protocol: Membrane integrity following peptide treatment was evaluated using flow cytometry. Anal 3, Anal 3-Pro or melittin (control) was added to C. albicans cells (2×10^5 cells in YPD media) to the MIC, after which cell membrane permeabilization was detected by incubating the treated cells in 50 µg/ml propidium iodide (PI) for 30 min at 4°C. After removing the unbound dye by extensively washing with PBS, the cells were subjected to flow cytometric analysis using a FACScalibur flow cytometer (Becton Dickinson, San Jose, CA). PI fluorescence was monitored in the FL2-H channel.
Compound,MIC G(−) PV [1] [µM],MIC G(−) ST [2] [µM],MIC G(−) PA [3] [µM],MIC G(+) SA [4] [µM],MIC Yeast TB [5] [µM],MIC G(+) BS [6] [µM],MIC Yeast CA [7] [µM],MIC G(+) SE [8] [µM],MIC G(−) EC [9] [µM],MIC Yeast SC [10] [µM],release of FD4 from PC/CH liposomes [11] [%],release of FD4 from PE/PG liposomes [11] [%],release of larger FD markers from PC/CH vesicles [11],release of larger FD markers from PE/PG liposomes [11],amount of peptide at which retardation of the pDNA band was detected [12] [µg],binding to chitin [13],intracellular localization of FITC-conjugated peptide [14],"PI influx (membrane permeabilization), in words [15]"
CC[C@H](C)[C@H](NC(=O)[C@H](CCCCN)NC(=O)[C@H](CO)NC(=O)[C@H](Cc1ccccc1)NC(=O)[C@H](CC(C)C)NC(=O)[C@H](CCCCN)NC(=O)[C@H](CCC(=O)O)NC(=O)[C@H](CC(C)C)NC(=O)[C@H](CCCNC(=N)N)NC(=O)[C@H](CCCCN)NC(=O)[C@H](Cc1ccccc1)NC(=O)[C@@H](NC(=O)[C@H](CCCCN)NC(=O)[C@H](CCCCN)NC(=O)[C@H](C)N)C(C)C)C(=O)N[C@@H](CCC(N)=O)C(=O)N[C@@H](CC(N)=O)C(=O)N[C@@H](Cc1c[nH]c2ccccc12)C(=O)N[C@@H](CCCCN)C(N)=O [Anal 1] (H-AKKVFKRLEKLFSKIQNWK-NH2),1.56,0.39,6.25,3.13,6.25,1.56,12.5,0.78,1.56,12.5,,,,,,,,
CC[C@H](C)[C@H](NC(=O)[C@H](CCCCN)NC(=O)[C@H](CO)NC(=O)[C@H](Cc1ccccc1)NC(=O)[C@H](CC(C)C)NC(=O)[C@H](CCCCN)NC(=O)[C@H](CCC(=O)O)NC(=O)[C@H](CC(C)C)NC(=O)[C@H](CCCNC(=N)N)NC(=O)[C@H](CCCCN)NC(=O)[C@H](Cc1ccccc1)NC(=O)[C@@H](NC(=O)[C@H](CCCCN)NC(=O)[C@H](CCCCN)NC(=O)[C@H](C)N)C(C)C)C(=O)N[C@@H](Cc1c[nH]c2ccccc12)C(=O)N[C@@H](CC(N)=O)C(=O)N[C@@H](CC(=O)O)C(=O)N[C@@H](CCCCN)C(N)=O [Anal 2] (H-AKKVFKRLEKLFSKIWNDK-NH2),1.56,0.78,6.25,3.13,6.25 to 12.5,1.56,12.5,1.56,1.56,12.5,,,,,,,,
CC[C@H](C)[C@H](NC(=O)[C@H](CCCCN)NC(=O)[C@H](CO)NC(=O)[C@H](Cc1ccccc1)NC(=O)[C@H](CC(C)C)NC(=O)[C@H](CCCCN)NC(=O)[C@H](CCC(=O)O)NC(=O)[C@H](CC(C)C)NC(=O)[C@H](CCCNC(=N)N)NC(=O)[C@H](CCCCN)NC(=O)[C@H](Cc1ccccc1)NC(=O)[C@@H](NC(=O)[C@H](CCCCN)NC(=O)[C@H](CCCCN)NC(=O)[C@H](C)N)C(C)C)C(=O)N[C@@H](Cc1c[nH]c2ccccc12)C(=O)N[C@@H](CC(N)=O)C(=O)N[C@@H](Cc1c[nH]c2ccccc12)C(=O)N[C@@H](CCCCN)C(N)=O [Anal 3] (H-AKKVFKRLEKLFSKIWNWK-NH2),1.56,0.39,3.13,1.56,3.13,0.78,6.25,0.78,0.78,3.13 to 6.25,,,,,,,,
CC[C@H](C)[C@H](NC(=O)[C@H](CCCCN)NC(=O)[C@H](CO)NC(=O)[C@H](Cc1ccccc1)NC(=O)[C@H](CO)NC(=O)[C@H](CCCCN)NC(=O)[C@H](CCC(=O)O)NC(=O)[C@H](CC(C)C)NC(=O)[C@H](CCCNC(=N)N)NC(=O)[C@H](CCCCN)NC(=O)[C@H](Cc1ccccc1)NC(=O)[C@@H](NC(=O)[C@H](CCCCN)NC(=O)[C@H](CCCCN)NC(=O)[C@H](C)N)C(C)C)C(=O)N[C@@H](CCC(N)=O)C(=O)N[C@@H](CC(N)=O)C(=O)N[C@@H](CC(=O)O)C(=O)N[C@@H](CCCCN)C(N)=O [Anal 4] (H-AKKVFKRLEKSFSKIQNDK-NH2),6.25,1.56,>12.5,>12.5,50,6.25,50 to 100,12.5,12.5,50,,,,,,,,
CC[C@H](C)[C@H](NC(=O)[C@H](CCCCN)NC(=O)[C@H](CO)NC(=O)[C@H](Cc1ccccc1)NC(=O)[C@H](CC(C)C)NC(=O)[C@H](CCCCN)NC(=O)[C@H](CCC(=O)O)NC(=O)[C@H](CC(C)C)NC(=O)[C@H](CCCNC(=N)N)NC(=O)[C@H](CCCCN)NC(=O)[C@H](CO)NC(=O)[C@@H](NC(=O)[C@H](CCCCN)NC(=O)[C@H](CCCCN)NC(=O)[C@H](C)N)C(C)C)C(=O)N[C@@H](CCC(N)=O)C(=O)N[C@@H](CC(N)=O)C(=O)N[C@@H](CC(=O)O)C(=O)N[C@@H](CCCCN)C(N)=O [Anal 5] (H-AKKVSKRLEKLFSKIQNDK-NH2),3.13,3.13,>12.5,>12.5,50,3.13,100,6.25,6.25,50 to 100,,,,,,,,
"CC[C@H](C)[C@H](NC(=O)[C@H](CCCCN)NC(=O)[C@H](CO)NC(=O)[C@H](Cc1ccccc1)NC(=O)[C@H](CC(C)C)NC(=O)[C@H](CCCCN)NC(=O)[C@H](CCC(=O)O)NC(=O)[C@H](CC(C)C)NC(=O)[C@H](CCCNC(=N)N)NC(=O)[C@H](CCCCN)NC(=O)[C@H](Cc1ccccc1)NC(=O)[C@@H](NC(=O)[C@H](CCCCN)NC(=O)[C@H](CCCCN)NC(=O)[C@H](C)N)C(C)C)C(=O)N[C@@H](CCC(N)=O)C(=O)N[C@@H](CC(N)=O)C(=O)N[C@@H](CC(=O)O)C(=O)N[C@@H](CCCCN)C(N)=O [HP (2–20), reference compound] (H-AKKVFKRLEKLFSKIQNDK-NH2)",3.13,0.78,12.5,12.5,12.5 to 25,1.56,25,3.13,6.25,25,,,,,,,,
buforin II,,,,,,,,,,,3.6,5,unable to release any of the larger markers,unable to release any of the larger markers,1,recognized only chitin,distributed throughout the fungal cells,
melittin: antimicrobial peptide known to target the cell membrane,,,,,,,,,,,,,,,,,,large influx of PI
